Data from ChEMBL document CHEMBL1201862, “PubChem BioAssay data set” (2004).
Activity calls are given as the source filed them.

Key:
[1] = molecular target: Beta-galactosidase (Escherichia coli, UniProt Q8VNN2); assay: PubChem AID 485352; assay type: functional
[2] = molecular target: Type-1 angiotensin II receptor (Homo sapiens, UniProt P30556); assay: AT1 receptor antagonists, dose response, selectivity assay for APJ receptor antagonist project, cell-based, uHTS hits (AID 463214); assay type: functional;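 note: antagonist potency against angiotensin II stimulated AT1 response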
[3] = growth suppression of PTEN-null colon cells, dose response, cell-based, HCT116 PTEN knockout (AID 1047); assay type: functional;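 note: HCT116 colon tumor cells with PTEN knocked out; cells exposed to compound for 60 hours before readout; potency for loss of cell viability measured by luminescence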
[4] = growth suppression of beta-catenin-knockout colon cells, dose response, cell-based, HCT116, human colon tumor (AID 1045); assay type: functional;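 note: HCT116 colon tumor cells with beta catenin knocked out; cells exposed to compound for 60 hours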
[5] = molecular target: T1, Mu-type opioid receptor (Homo sapiens, UniProt P35372); assay: MOR agonists by imaging, SAR follow-up, image-based (AID 2352); assay type: functional
[6] = molecular target: T2, Delta-type opioid receptor (Homo sapiens, UniProt P41143); assay: DOR agonists, SAR follow-up, image-based (AID 2370); assay type: functional
[7] = molecular target: T3, Kappa-type opioid receptor (Homo sapiens, UniProt P41145); assay: KOR antagonists by imaging, SAR follow-up, image-based (AID 2348); assay type: functional
[8] = molecular target: T1, Mu-type opioid receptor; assay: MOR antagonists, SAR follow-up, image-based (AID 2420); assay type: functional;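 note: compounds added before stimulation of receptor with agonist DAMGO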
[9] = molecular target: T3, Kappa-type opioid receptor; assay: KOR agonist analogs, imaging readout, SAR follow-up, image-based (AID 2359); assay type: functional
[10] = molecular target: T2, Delta-type opioid receptor; assay: DOR antagonists, SAR follow-up, image-based (AID 2357); assay type: functional
[11] = molecular target: T3, Kappa-type opioid receptor; assay: kappa opioid receptor blockers, cell-based, luminescence, beta-arrestin, SAR follow-up (AID 2285); assay type: functional
[12] = molecular target: T4, RNA-binding protein pos-1 (Caenorhabditis elegans, UniProt G5EF15); assay: inhibitors of POS-1/mex-3 RNA binding, dose response, biochemical, fluorescence polarization (AID 1964);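 note: purified POS-1 fused to maltose binding protein made in E. coli; potency of compounds blocking POS-1 binding to fluorescent RNA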
T4 sequence (G5EF15 whole entry): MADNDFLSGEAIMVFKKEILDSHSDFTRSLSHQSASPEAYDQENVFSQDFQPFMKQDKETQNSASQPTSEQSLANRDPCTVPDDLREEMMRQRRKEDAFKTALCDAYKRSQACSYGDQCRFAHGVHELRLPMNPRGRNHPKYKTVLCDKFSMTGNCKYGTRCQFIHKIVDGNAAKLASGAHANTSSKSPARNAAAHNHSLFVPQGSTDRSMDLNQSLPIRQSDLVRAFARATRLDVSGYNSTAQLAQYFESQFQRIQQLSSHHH

[13] = molecular target: T5, Zinc finger protein mex-5 (Caenorhabditis elegans, UniProt Q9XUB2); assay: MEX-5/TCR-2 RNA interaction inhibitors, dose response, biochemical, C. elegans, fluorescence polarization (AID 1960)
T5 sequence (Q9XUB2 whole entry): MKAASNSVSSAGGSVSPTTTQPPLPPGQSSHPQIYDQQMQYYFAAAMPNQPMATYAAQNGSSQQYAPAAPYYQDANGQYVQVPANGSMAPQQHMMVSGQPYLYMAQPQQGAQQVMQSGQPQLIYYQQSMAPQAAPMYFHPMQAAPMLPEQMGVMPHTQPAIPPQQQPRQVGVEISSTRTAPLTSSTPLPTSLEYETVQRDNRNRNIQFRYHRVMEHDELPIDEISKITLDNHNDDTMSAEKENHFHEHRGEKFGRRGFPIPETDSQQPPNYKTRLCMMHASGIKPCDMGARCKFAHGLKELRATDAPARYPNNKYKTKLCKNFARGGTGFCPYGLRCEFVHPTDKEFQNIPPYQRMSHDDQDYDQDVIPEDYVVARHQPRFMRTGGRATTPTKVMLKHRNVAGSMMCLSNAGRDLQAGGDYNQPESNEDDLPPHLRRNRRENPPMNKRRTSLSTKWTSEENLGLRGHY

[14] = molecular target: Keap1/Nrf2 (Homo sapiens, UniProt Q14145); assay: Keap1-Nrf2 protein-protein interaction inhibitors, dose response, biochemical, fluorescence polarization, cherry-picked samples (AID 588683)
[15] = molecular target: T6, Leucine aminopeptidase (Plasmodium falciparum 3D7, UniProt Q8IL11); assay: P. falciparum M17LAP inhibitors, primary screen, biochemical, fluorogenic H-Leu-NHMec substrate, 1536-well (AID 1619); assay type: functional
T6 sequence (Q8IL11 whole entry): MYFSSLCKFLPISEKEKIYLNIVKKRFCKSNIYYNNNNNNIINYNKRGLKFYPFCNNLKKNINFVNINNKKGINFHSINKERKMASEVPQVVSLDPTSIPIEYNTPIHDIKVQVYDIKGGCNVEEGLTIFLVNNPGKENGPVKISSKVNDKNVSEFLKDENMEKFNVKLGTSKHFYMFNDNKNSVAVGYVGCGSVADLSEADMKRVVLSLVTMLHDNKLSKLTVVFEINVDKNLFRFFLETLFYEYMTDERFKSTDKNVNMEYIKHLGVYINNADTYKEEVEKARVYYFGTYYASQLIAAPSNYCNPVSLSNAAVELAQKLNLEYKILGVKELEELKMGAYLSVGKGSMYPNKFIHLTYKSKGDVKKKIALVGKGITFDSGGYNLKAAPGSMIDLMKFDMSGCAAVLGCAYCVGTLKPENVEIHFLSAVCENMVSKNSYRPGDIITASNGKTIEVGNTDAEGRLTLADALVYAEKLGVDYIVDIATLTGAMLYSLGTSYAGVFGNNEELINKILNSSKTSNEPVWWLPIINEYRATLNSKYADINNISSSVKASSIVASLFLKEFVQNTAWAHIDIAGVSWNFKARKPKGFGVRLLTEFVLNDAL

[16] = molecular target: T7, E3 ubiquitin-protein ligase XIAP (Homo sapiens, UniProt P98170); assay: Counter Screen using XIAP-Bir3 for Chemical Antagonists of Bir1/2 domains of IAP-family anti-apoptotic proteins. [Related pubchem assays (depositor defined):AID1018, AID1449, AID1514, AID1638, AID1749, AID1750, AID488957, AID488963]
[17] = molecular target: T7, E3 ubiquitin-protein ligase XIAP; assay: XIAP antagonists, biochemical, IAP family, fluorescence polarization (AID 1018); assay type: functional
[18] = molecular target: FAD-linked sulfhydryl oxidase ALR (Homo sapiens, UniProt P55789); assay: inhibitors of human ALR sulfhydryl oxidase, dose response, biochemical, H2O2 detection, luminescence, cherry-pick (AID 493248)
[19] = system: BJ; assay: cytotoxicity toward BJ-TERT fibroblasts, dose response, cell-based, RAS-independent, luminescence (AID 1933); assay type: functional; settings: Homo sapiens
[20] = system: BJ; assay: cells; assay type: functional, cell-based; settings: Homo sapiens
[21] = system: BJ; assay: cytotoxicity toward BJ-TERT-LT-ST fibroblasts, dose response, cell-based, RAS-independent, luminescence (AID 1935); assay type: functional; settings: Homo sapiens;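 note: BJ fibroblasts immortalized with TERT plus LT and ST oncogenes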
[22] = cytotoxicity toward DRD oncogenic fibroblasts, dose response, cell-based, non-viral oncogenic, luminescence (AID 1934); assay type: functional; settings: Homo sapiens
[23] = system: CHO; assay: cytotoxicity in TLR9-MyD88 CHO cells, dose response, cytotoxicity control for TLR9-MyD88 binding inhibitor project, cell-based, luminescence (AID 588339); assay type: functional, hamster; settings: Cricetulus griseus;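 note: CHO cells stably coexpressing TLR9 and MyD88 fusions from primary screen; compound exposure lasted 48 hours before viability readout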
[24] = molecular target: Beta Lactamase (Pseudomonas aeruginosa, UniProt Q932Y6); assay: beta-lactamase reporter inhibitor potency, dose response, artefact control for TLR9-MyD88 binding inhibitor project, BLA reporter cells, FRET fluorescence (AID 588341); assay type: cell-based;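 note: cell based assay in CHO-K1 cells stably expressing beta-lactamase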
[25] = molecular target: T8, Short transient receptor potential channel 4 (Mus musculus, UniProt Q9QUQ5); assay: mouse TRPC4 channel inhibitors, dose response, cell-based, HEK293 TRPC4/mu-opioid, Fluo-4 calcium (AID 434942); assay type: functional;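 note: potency of inhibitors blocking the TRPC4 calcium response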
T8 sequence (Q9QUQ5 whole entry): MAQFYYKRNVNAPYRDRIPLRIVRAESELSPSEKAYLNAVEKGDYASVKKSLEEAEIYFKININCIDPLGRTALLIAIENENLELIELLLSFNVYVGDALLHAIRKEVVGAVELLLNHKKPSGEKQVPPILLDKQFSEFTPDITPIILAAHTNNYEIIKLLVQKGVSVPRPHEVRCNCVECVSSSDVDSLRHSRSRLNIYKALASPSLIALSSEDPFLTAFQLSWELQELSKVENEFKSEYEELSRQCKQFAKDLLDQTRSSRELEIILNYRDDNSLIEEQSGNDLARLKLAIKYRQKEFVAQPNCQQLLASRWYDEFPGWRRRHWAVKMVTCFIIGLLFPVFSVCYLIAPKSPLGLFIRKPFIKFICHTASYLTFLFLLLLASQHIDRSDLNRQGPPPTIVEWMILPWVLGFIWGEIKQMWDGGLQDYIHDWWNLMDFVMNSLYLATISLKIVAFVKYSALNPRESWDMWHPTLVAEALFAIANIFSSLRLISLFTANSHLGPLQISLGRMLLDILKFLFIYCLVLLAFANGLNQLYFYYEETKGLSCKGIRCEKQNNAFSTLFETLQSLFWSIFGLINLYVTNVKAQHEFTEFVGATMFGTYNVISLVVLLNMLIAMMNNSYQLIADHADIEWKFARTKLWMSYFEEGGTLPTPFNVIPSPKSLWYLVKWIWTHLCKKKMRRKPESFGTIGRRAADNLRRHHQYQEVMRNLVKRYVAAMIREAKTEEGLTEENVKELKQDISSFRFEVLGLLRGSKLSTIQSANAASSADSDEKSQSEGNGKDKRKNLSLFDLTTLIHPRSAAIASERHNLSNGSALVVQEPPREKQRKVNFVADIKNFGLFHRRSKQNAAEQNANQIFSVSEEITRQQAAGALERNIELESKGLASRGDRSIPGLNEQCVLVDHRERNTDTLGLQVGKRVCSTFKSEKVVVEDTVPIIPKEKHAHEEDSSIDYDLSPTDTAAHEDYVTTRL

[26] = molecular target: Intestinal-type alkaline phosphatase (Homo sapiens, UniProt P09923); assay: human intestinal alkaline phosphatase activators, dose response, biochemical, luminescence, uHTS hits (AID 463120); assay type: functional
[27] = molecular target: T8, Short transient receptor potential channel 4; assay: mouse TRPC4 channel activators, dose response, cell-based, HEK293 TRPC4/mu-opioid, Fluo-4 calcium (AID 434937); assay type: functional

T2 sequence (P41143 whole entry): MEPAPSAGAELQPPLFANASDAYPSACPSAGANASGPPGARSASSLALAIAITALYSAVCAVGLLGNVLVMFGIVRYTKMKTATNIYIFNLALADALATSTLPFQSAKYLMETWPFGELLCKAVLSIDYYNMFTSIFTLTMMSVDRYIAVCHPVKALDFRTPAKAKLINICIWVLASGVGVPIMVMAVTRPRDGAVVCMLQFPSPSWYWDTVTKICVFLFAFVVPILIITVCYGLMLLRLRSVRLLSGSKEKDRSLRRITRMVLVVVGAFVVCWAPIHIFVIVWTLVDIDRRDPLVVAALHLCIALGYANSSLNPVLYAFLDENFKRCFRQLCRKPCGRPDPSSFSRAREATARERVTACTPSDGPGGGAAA
T7 sequence (P98170 whole entry): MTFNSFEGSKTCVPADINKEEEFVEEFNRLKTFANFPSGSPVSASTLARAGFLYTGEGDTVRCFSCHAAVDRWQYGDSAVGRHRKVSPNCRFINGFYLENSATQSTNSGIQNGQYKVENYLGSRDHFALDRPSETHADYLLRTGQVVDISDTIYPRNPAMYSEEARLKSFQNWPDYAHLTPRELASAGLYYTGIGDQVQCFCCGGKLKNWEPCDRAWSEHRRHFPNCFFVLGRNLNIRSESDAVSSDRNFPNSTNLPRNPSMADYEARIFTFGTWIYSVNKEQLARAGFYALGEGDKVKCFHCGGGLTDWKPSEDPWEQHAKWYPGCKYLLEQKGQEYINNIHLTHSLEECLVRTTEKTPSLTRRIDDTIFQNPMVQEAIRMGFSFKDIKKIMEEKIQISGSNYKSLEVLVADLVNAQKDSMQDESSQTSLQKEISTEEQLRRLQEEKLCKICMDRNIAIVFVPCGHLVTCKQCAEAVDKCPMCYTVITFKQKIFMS
T1 sequence (P35372 whole entry): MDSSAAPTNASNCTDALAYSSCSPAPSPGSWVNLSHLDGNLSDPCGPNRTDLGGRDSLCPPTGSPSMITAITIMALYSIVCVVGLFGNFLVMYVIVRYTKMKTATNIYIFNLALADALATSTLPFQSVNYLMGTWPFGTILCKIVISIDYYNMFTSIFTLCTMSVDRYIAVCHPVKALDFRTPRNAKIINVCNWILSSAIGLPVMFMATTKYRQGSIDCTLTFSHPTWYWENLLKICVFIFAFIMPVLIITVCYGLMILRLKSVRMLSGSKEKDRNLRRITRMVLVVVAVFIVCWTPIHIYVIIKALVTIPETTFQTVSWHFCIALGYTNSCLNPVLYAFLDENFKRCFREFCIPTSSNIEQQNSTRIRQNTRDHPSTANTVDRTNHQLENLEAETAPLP
T3 sequence (P41145 whole entry): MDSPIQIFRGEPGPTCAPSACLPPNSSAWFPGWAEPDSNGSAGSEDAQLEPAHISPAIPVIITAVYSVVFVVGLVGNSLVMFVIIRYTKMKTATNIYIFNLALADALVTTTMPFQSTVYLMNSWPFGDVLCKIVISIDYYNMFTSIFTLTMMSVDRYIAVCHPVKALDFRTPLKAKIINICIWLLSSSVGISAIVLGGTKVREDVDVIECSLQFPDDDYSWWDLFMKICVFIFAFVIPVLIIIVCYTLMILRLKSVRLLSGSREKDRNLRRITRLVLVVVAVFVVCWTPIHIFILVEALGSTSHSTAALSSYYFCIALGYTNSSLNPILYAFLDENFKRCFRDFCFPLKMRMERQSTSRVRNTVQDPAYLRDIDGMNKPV
Chain of Beta-galactosidase (Q8VNN2 whole entry): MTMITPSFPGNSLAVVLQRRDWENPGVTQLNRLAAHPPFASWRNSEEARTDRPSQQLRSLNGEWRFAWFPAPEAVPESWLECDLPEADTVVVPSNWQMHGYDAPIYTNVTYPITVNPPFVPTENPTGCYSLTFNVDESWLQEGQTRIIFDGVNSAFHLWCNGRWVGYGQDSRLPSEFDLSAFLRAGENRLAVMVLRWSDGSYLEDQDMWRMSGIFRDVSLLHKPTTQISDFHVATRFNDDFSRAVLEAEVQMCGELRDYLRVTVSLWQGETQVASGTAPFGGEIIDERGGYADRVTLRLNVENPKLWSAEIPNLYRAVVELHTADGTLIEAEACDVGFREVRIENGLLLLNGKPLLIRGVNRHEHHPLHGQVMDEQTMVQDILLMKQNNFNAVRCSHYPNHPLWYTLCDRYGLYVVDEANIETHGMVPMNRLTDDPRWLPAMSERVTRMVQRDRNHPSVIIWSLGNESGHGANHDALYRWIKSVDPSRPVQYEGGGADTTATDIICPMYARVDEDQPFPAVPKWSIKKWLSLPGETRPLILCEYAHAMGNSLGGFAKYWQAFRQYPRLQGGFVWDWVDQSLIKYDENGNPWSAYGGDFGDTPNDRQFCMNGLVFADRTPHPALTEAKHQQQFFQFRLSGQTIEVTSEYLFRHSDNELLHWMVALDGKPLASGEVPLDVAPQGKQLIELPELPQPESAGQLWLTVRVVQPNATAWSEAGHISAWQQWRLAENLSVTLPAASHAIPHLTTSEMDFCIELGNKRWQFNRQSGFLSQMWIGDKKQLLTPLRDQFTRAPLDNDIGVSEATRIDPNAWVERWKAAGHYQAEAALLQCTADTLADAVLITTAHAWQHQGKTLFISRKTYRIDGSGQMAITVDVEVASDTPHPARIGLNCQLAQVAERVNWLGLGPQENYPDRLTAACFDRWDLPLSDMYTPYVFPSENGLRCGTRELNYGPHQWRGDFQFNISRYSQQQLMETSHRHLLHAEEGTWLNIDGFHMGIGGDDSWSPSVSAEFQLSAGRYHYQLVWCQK
Chain of Keap1/Nrf2 (Q16236 whole entry): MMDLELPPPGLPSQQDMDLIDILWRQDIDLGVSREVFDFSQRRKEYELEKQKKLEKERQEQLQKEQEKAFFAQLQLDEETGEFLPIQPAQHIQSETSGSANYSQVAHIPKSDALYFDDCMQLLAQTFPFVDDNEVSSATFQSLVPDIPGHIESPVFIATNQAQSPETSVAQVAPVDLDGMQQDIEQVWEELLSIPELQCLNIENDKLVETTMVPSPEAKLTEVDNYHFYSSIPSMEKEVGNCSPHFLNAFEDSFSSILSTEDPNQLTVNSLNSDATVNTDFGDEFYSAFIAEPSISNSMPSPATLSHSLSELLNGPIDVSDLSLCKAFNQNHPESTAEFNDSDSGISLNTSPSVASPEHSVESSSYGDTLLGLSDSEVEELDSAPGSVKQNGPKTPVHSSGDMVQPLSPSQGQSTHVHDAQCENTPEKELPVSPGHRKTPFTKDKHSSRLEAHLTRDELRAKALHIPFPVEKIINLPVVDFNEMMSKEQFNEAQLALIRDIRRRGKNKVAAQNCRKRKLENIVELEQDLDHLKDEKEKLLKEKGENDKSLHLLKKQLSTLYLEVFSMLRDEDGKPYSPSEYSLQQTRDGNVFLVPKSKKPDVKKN
Chain of Keap1/Nrf2 (Q14145 whole entry): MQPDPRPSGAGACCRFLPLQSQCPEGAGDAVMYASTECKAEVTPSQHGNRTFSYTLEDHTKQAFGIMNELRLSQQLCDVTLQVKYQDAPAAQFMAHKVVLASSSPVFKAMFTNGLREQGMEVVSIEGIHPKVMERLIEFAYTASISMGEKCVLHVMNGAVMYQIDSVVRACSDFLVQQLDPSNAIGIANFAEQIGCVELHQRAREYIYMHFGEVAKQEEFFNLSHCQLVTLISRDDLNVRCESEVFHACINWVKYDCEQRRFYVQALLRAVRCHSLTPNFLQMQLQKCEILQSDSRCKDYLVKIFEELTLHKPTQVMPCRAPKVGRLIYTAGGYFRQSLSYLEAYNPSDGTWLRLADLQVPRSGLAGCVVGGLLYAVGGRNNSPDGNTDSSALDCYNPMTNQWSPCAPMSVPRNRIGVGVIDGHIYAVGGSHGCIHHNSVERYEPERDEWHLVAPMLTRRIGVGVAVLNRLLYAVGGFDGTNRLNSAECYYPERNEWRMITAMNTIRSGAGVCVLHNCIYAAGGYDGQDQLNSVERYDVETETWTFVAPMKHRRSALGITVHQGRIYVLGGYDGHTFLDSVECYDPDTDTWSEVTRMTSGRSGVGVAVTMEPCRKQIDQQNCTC
Chain of Type-1 angiotensin II receptor (P30556 whole entry): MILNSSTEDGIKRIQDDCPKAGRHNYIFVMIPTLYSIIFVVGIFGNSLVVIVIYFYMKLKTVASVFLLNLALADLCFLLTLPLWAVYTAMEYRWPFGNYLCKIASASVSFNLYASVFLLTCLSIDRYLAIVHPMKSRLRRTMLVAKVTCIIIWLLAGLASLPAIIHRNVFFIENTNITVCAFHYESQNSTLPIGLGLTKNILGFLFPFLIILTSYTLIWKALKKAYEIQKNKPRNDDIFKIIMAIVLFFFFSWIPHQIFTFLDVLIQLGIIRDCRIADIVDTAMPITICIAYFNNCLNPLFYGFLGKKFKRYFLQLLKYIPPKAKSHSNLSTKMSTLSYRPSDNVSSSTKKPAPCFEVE
Chain of Beta Lactamase (Q932Y6 whole entry): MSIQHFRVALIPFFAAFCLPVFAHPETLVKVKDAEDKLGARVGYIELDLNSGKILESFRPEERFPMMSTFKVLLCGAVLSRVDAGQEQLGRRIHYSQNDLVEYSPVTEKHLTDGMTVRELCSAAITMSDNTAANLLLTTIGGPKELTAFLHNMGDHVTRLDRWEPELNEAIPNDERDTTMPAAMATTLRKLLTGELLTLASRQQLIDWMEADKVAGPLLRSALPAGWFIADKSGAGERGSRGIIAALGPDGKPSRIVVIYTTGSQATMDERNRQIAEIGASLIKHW
Chain of FAD-linked sulfhydryl oxidase ALR (P55789 whole entry): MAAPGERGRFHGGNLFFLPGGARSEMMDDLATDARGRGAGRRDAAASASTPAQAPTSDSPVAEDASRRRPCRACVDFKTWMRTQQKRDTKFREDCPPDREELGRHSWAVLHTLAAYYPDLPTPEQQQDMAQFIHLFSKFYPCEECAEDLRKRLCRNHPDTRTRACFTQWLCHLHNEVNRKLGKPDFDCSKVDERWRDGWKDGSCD

Compound: O=C1Nc2ccc(Br)cc2/C1=N/N=C/C1=C(N2CCOCC2)C(=C\c2ccccc2)/CC1
- EC50 [1]: > 40 µM (inactive)
- IC50 [2]: > 40 µM (not active)
- EC50 [3]: 9.88 µM (active)
- EC50 [4]: 11.4 µM (active)

Compound: O=C(NC(NC(=S)Nc1ccc(F)cc1)C(Cl)(Cl)Cl)OCc1ccccc1 (centres undefined)
- EC50 [5]: > 32 µM (inactive)
- EC50 [6]: > 32 µM (inactive)
- IC50 [7]: 6.02 µM (active)
- IC50 [8]: > 32 µM (inactive)
- EC50 [9]: > 32 µM (inactive)
- IC50 [10]: > 32 µM (inactive)
- IC50 [11]: > 10 µM (inactive)

Compound: COc1ccc(Nc2nc(-c3cccnc3)nc3ccccc23)cn1
- EC50 [12]: 12.4 µM (active)
- EC50 [13]: 8.22 µM (active)
- AC50 [14]: > 52 µM (inactive)

Compound: COc1cccc(/C=C/C(=O)OCC(=O)NC(=O)NC2CCCC2)c1
- AC50 [14]: > 52 µM (inactive)

Compound: CSc1cccc(NC(=O)CN2C(=O)c3ccccc3S2(=O)=O)c1
- IC50 [15]: 5.87 µM (active)
- IC50 [16]: > 100 µM (inactive)
- IC50 [17]: > 100 µM (not active)
- AC50 [18]: 2.37 µM (active)

Compound: Cc1cccc(NC(=S)NNc2ncc(C(F)(F)F)cc2Cl)c1
- EC50 [1]: > 40 µM (inactive)
- IC50 [2]: 13.1 µM (active)

Compound: COc1ccc(S(=O)(=O)NCc2ccc(C(=O)N3CCN(Cc4ccccc4)CC3)cc2)cc1
- EC50 [5]: > 32 µM (inactive)
- EC50 [6]: > 32 µM (inactive)
- IC50 [7]: > 32 µM (inactive)
- IC50 [8]: > 32 µM (inactive)
- EC50 [9]: > 32 µM (inactive)
- IC50 [10]: > 32 µM (inactive)
- IC50 [11]: > 10 µM (inactive)

Compound: O=[N+]([O-])c1ccccc1S(=O)(=O)N1CCCCC1
- IC50 [16]: > 100 µM (inactive)
- IC50 [17]: > 100 µM (not active)

Compound: Cc1ccc(Cl)c(NC(=O)COC(=O)c2ccccc2C(=O)c2ccc(Cl)c([N+](=O)[O-])c2)c1Cl
- EC50 [19]: 2.71 µM (active)
- EC50 [20]: 16.8 µM (inconclusive)
- EC50 [21]: 3.87 µM (inconclusive)
- EC50 [22]: 7.58 µM (active)
- IC50 [23]: 12.6 µM (inactive)
- IC50 [24]: > 49.8 µM (inactive)

Compound: C/C(=N/NC(=O)c1ccc(Cn2cccn2)o1)c1cccc(NC(=O)c2ccncc2)c1
- EC50 [25]: 3.76 µM (active)
- EC50 [26]: > 100 µM (inactive)
- EC50 [27]: 5.31 µM (active)
